The source made the active and inactive calls. No cut-off for these calls is given here.
Tests used:
Assay type in all cases: functional, cell-based
HT-29 = assay: Cytotoxicity against human HT-29 cells assessed as cell survival after 96 hrs by SRB assay; conditions: HT-29, 96 h
A2780 [1] = assay: Cytotoxicity against human A2780 cells assessed as cell survival after 96 hrs by SRB assay; conditions: A2780, 96 h
[2] = Cytotoxicity against human DLD1 cells assessed as cell survival after 96 hrs by SRB assay; conditions: DLD-1, 96 h
[3] = Cytotoxicity against human A253 cells assessed as cell survival after 96 hrs by SRB assay; conditions: A253, 96 h
[4] = Cytotoxicity against human HCT8 cells assessed as cell survival after 96 hrs by SRB assay; conditions: HCT-8, 96 h
A2780 [5] = assay: Induction of apoptosis in human A2780 cells assessed as DNA fragmentation at IC90 after 24 hrs by DNA-laddering assay
A2780 [6] = assay: Induction of apoptosis in human A2780 cells assessed as intact cell membrane at IC90 after 24 hrs by trypan blue exclusion assay

| SMILES | IC50 (HT-29) [µM] | IC50 (A2780 [1]) [µM] | IC50 [2] [µM] | IC50 [3] [µM] | IC50 [4] [µM] | Activity (A2780 [5]) | Activity (A2780 [6]) |
| --- | --- | --- | --- | --- | --- | --- | --- |
| COC(=O)[C@@]1(C)/C(=N/O)CC[C@@]2(C)[C@H]1CC[C@]1(C)[C@@H]2C(=O)C=C2[C@@H]3[C@@H](C)[C@H](C)CC[C@]3(C)CC[C@]21C | 15.4 | 18 | 13.7 | 15.5 | 16.4 | – | – |
| CC(=O)O[C@@H]1CC[C@@]2(C)[C@@H](CC[C@]3(C)[C@@H]2C(=O)C=C2[C@@H]4[C@@H](C)[C@H](C)CC[C@]4(C)CC[C@]23C)[C@@]1(C)C(=O)O [AKBA] | 19.4 | 14.1 | 20.9 | 16.9 | 17.5 | – | – |
| COC(=O)[C@@]1(C)C(=O)C(O)=C[C@]2(C)[C@H]3C(=O)C=C4[C@@H]5[C@@H](C)[C@H](C)CC[C@]5(C)CC[C@@]4(C)[C@]3(C)CC[C@@H]12 | 29.9 | 41.1 | 34.1 | 42.3 | 39.7 | – | – |
| COC(=O)[C@]1(C)[C@@H]2CC[C@]3(C)[C@H](C(=O)C=C4[C@@H]5[C@@H](C)[C@H](C)CC[C@]5(C)CC[C@]43C)[C@@]2(C)CC1(O)C(=O)O (some centres not stated) | 51.4 | 53.6 | 56.1 | 54.9 | 46.9 | – | – |
| COC(=O)[C@@]1(C)C=CC[C@@]2(C)[C@H]1CC[C@]1(C)[C@@H]2C(=O)C=C2[C@@H]3[C@@H](C)[C@H](C)CC[C@]3(C)CC[C@]21C | 30.2 | 40.1 | 32.9 | 40.2 | 39.4 | – | – |
| C[C@H]1[C@H](C)CC[C@]2(C)CC[C@]3(C)C(=CC(=O)[C@@H]4[C@@]5(C)CC[C@@H](O)[C@](C)(C(=O)O)[C@@H]5CC[C@]43C)[C@H]12 [11-KETO BOSWELLIC ACID] | 71.9 | 37.9 | 57.7 | 45.9 | 44.6 | – | – |
| COC(=O)[C@@]1(C)[C@@H](C(=O)O)CC[C@@]2(C)[C@H]1CC[C@]1(C)[C@@H]2C(=O)C=C2[C@@H]3[C@@H](C)[C@H](C)CC[C@]3(C)CC[C@]21C | 34.1 | 35.4 | 42.7 | 38.2 | 41.7 | – | – |
| C[C@H]1[C@H](C)CC[C@]2(C)CC[C@]3(C)C(=CC(=O)[C@@H]4[C@@]5(C)CC[C@H](N)[C@](C)(C(=O)O)[C@@H]5CC[C@]43C)[C@H]12 | 8.7 | 7.3 | 9.9 | 5.6 | 12.5 | Active | Active |
| C[C@H]1[C@H](C)CC[C@]2(C)CC[C@]3(C)C(=CC(=O)[C@@H]4[C@@]5(C)CCC(=O)[C@@H](C)[C@@H]5CC[C@]43C)[C@H]12 | 28.2 | 23.5 | 57.3 | 39.4 | 30.2 | – | – |
| C[C@H]1[C@H](C)CC[C@]2(C)CC[C@]3(C)C(=CC=C4[C@@]5(C)CC[C@@H](O)[C@](C)(CO)[C@@H]5CC[C@]43C)[C@H]12 | 23.9 | 43.2 | 19.5 | 18.1 | 31.3 | – | – |

From ChEMBL document CHEMBL3407364, “Synthesis and antitumor activity of ring A modified 11-keto-β-boswellic acid derivatives” (Eur J Med Chem, 2015)
